Earlier results on one compound are cited in PMC2803440 (Current Chemical Genomics, 2008).

For this data set, the target named is recombinant variant of PON1.

The structures appear in SMILES notation.

With `Oc1ccc2ccccc2n1` [Compound 2HQ, 2-hydroxyquinoline], the Ki was 3000 nM.
